Where a name gives a salt, the structure may show the parent alone.
Molecular target: T1, Nav1.7 (or SCN9A) channel (Homo sapiens, UniProt Q15858)
T1 construct: expressed in transfected cells
Assay: Nav1.7 (hSCN9A) channel block, PatchXpress whole-cell electrophysiology
Type: cell-based
Details: PatchXpress platform; HEK cells stably transfected with hSCN9A; estimated IC-50 calculated from single point % inhibition at V1/2; read-out: Nav1.7 EIC50
Experimental: The ability of the compounds of formula (I) to block the Nav1.7 (or SCN9A) channel were measured using the assay described below.
Human Embryonic Kidney (HEK) cells were transfected with an hSCN9A construct using lipofectamine reagent (Invitrogen), using standard techniques. Cells stably expressing the hSCN9A constructs were identified by their resistance to G-418 (400 μg/ml). Clones were screened for expression using the whole-cell voltage-clamp technique.
HEK cells stably transfected with hSCN9A were maintained in DMEM medium supplemented with 10% heat-inactivated fetal bovine serum and 400 μg/ml G-418 in an incubator at 37° C. with a humidified atmosphere of 10% CO2. For HTS, cells were harvested from flasks by trypsinization and replated in an appropriate multi-well plate (typically 96 or 384 wells/plate) such that confluence would be achieved within 24 hours of plating. For electrophysiological studies, cells were removed from the culture flask by brief trypsinization and re-plated at low density onto glass cover slips. Cells were typically used for electrophysiological experiments within 24 to 72 hours after plating.
Cover slips containing HEK cells expressing hSCN9A were placed in a bath on the stage of an inverted microscope and perfused (approximately 1 ml/minutes) with extracellular solution of the following composition: 138 mM NaCl, 2 mM CaCl2, 5.4 mM KCl, 1 mM MgCl2, 10 mM glucose, and 10 mM HEPES, pH 7.4, with NaOH. […] The osmolarity of the extracellular and intracellular solutions was 300 mOsm/kg and 295 mOsm/kg, respectively. All recordings were made at room temperature (22-24° C.) using AXOPATCH 200B amplifiers and PCLAMP software (Axon Instruments, Burlingame, Calif.).
hSCN9A currents in HEK cells were measured using the whole-cell configuration of the patch-clamp technique (Hamill et al., 1981). Uncompensated series resistance was typically 2 to 5 mega ohms and >85% series resistance compensation was routinely achieved. As a result, voltage errors were negligible and no correction was applied. Current records were acquired at 20 to 50 KHz and filtered at 5 to 10 KHz.
HEK cells stably transfected with hSCN9A were viewed under Hoffman contrast optics and placed in front of an array of flow pipes emitting either control or compound-containing extracellular solutions. All compounds were dissolved in dimethyl sulfoxide to make 10 mM stock solutions, which were then diluted into extracellular solution to attain the final concentrations desired. […] The voltage-dependence of inactivation was determined by applying a series of depolarizing prepulses (8 sec long in 10 mV increments) from a negative holding potential. The voltage was then immediately stepped to 0 mV to assess the magnitude of the sodium current. Currents elicited at 0 mV were plotted as a function of prepulse potential to allow estimation of the voltage at which 50% of the channels were inactivated (midpoint of inactivation or V1/2). Compounds were tested for their ability to inhibit hSCN9A sodium channels by activating the channel with a 20 msec voltage step to 0 mV following an 8 second conditioning prepulse to the empirically determined V1/2. Compound effect (% inhibition) was determined by difference in current amplitude before and after application of test compounds. […] Inhibition values <20% and >80% were excluded from the calculation.
Electrophysiological assays were conducted with PatchXpress 7000 hardware and associated software (Molecular Devices Corp). All assay buffers and solutions were identical to those used in conventional whole-cell voltage clamp experiments described above. hSCN9A cells were grown as above to 50%-80% confluency and harvested by trypsinization. Trypsinized cells were washed and resuspended in extracellular buffer at a concentration of 1×10^6 cells/ml. The onboard liquid handling facility of the PatchXpress was used for dispensing cells and application of test compounds. […]

T1 sequence (Q15858 whole entry): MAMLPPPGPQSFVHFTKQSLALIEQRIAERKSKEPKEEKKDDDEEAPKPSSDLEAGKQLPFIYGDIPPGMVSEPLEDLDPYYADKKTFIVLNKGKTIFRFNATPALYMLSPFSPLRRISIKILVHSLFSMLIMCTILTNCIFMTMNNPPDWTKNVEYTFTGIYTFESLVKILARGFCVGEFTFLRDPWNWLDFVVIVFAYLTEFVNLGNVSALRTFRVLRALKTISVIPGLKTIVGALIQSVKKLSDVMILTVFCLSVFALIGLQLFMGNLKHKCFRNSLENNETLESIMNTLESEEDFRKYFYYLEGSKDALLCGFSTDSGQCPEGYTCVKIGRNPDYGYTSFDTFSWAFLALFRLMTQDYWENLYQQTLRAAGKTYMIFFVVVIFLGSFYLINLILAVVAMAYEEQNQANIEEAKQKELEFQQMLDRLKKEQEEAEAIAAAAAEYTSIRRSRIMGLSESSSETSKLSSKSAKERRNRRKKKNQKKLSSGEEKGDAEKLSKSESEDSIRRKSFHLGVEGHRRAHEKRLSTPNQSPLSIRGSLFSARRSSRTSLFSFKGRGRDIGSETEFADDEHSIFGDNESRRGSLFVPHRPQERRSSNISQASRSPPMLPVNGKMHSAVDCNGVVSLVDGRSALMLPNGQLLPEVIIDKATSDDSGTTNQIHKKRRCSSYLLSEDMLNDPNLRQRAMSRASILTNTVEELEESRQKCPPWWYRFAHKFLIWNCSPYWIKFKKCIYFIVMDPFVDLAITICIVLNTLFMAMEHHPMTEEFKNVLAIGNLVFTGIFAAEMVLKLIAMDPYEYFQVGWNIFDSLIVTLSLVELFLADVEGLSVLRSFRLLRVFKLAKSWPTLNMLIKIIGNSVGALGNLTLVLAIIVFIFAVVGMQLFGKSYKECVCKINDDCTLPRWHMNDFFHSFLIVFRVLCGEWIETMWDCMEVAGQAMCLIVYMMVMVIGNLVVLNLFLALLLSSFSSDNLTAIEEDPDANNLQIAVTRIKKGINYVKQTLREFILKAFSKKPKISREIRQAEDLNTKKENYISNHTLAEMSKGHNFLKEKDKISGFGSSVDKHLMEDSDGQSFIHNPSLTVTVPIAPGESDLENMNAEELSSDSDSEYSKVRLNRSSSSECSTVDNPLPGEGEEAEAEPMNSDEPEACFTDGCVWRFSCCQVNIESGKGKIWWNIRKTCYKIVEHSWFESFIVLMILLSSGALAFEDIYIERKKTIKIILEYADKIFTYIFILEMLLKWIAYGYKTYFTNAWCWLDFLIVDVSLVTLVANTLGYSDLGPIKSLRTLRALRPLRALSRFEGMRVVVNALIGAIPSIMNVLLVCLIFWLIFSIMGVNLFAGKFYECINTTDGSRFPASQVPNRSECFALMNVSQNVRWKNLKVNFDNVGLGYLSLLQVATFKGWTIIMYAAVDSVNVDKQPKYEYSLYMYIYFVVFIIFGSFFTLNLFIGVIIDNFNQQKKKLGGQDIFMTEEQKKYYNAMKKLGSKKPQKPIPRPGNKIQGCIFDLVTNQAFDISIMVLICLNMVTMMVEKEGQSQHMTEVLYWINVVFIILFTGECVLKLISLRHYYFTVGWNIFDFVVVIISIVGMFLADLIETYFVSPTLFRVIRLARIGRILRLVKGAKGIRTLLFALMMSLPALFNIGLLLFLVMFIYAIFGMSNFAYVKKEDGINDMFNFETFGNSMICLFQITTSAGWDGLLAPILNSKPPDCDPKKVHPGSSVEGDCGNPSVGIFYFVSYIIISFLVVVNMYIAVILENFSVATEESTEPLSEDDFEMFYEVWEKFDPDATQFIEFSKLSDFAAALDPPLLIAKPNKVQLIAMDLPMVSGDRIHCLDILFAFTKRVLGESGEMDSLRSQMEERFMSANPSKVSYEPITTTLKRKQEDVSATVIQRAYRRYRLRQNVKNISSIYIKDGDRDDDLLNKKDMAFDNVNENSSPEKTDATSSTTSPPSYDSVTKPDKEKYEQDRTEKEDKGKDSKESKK

| Compound | IC50 |
| --- | --- |
| [2H]C([2H])([2H])C(Oc1ncc(OCc2cc(F)c(C(=O)NS(C)(=O)=O)cc2Cl)cc1Cl)(C([2H])([2H])[2H])C([2H])([2H])[2H] [Example 32, 4-{[(6-d9-tert-Butoxy-5-chloropyridin-3-yl)oxy]methyl}-5-chloro-2-fluoro-N-(methylsulfonyl)benzamide] | 11 nM |
| COc1ncc(OCc2cc(F)c(C(=O)NS(C)(=O)=O)cc2Cl)cc1Cl [Example 33, 5-Chloro-4-{[(5-chloro-6-methoxypyridin-3-yl)oxy]methyl}-2-fluoro-N-(methylsulfonyl)benzamide] | 380 nM |
| CC(C)C(F)(F)c1ncc(OCc2cc(F)c(C(=O)NS(C)(=O)=O)cc2Cl)cc1Cl [Example 36, 5-Chloro-4-({[5-chloro-6-(1,1-difluoro-2-methylpropyl)pyridin-3-yl]oxy}methyl)-2-fluoro-N-(methylsulfonyl)benzamide] | 52.7 nM |
| CS(=O)(=O)NC(=O)c1cc(Cl)c(COc2cnc(OC(F)F)c(Cl)c2)cc1F [Example 41, 5-Chloro-4-({[5-chloro-6-(difluoromethoxy)pyridin-3-yl]oxy}methyl)-2-fluoro-N-(methylsulfonyl)benzamide] | 62.3 nM |
| CS(=O)(=O)NC(=O)c1cc(Cl)c(COc2cnc(OCCC(F)(F)F)c(Cl)c2)cc1F [Example 44, 5-Chloro-4-({[5-chloro-6-(3,3,3-trifluoropropoxy)pyridin-3-yl]oxy}methyl)-2-fluoro-N-(methylsulfonyl)benzamide] | 25.8 nM |
| CC(C)(F)COc1ncc(OCc2cc(F)c(C(=O)NS(C)(=O)=O)cc2Cl)cc1Cl [Example 45, 5-Chloro-4-({[5-chloro-6-(2-fluoro-2-methylpropoxy)pyridin-3-yl]oxy}methyl)-2-fluoro-N-(methylsulfonyl)benzamide] | 58.2 nM |
| CS(=O)(=O)NC(=O)c1cc(Cl)c(COc2cnc(OCC(F)(F)C(F)(F)F)c(Cl)c2)cc1F [Example 46, 5-Chloro-4-({[5-chloro-6-(2,2,3,3,3-pentafluoropropoxy)pyridin-3-yl]oxy}methyl)-2-fluoro-N-(methylsulfonyl)benzamide] | 18 nM |
| COc1cc(COc2cnc(OCC(C)C)c(Cl)c2)ccc1C(=O)NS(C)(=O)=O [Example 47, 4-{[(5-Chloro-6-isobutoxypyridin-3-yl)oxy]methyl}-2-methoxy-N-(methylsulfonyl)benzamide] | 4390 nM |
| CC(C)c1ncc2ncc(COc3cc(F)c(C(=O)NS(C)(=O)=O)cc3Cl)cn12 [Example 50] | > 3000 nM |
| CS(=O)(=O)NC(=O)c1ccc(COc2cccc3cnccc23)cc1 [Example 52] | > 3000 nM |
| CS(=O)(=O)NC(=O)c1ccc(COc2ccc3ccncc3c2)cc1 [Example 53] | > 3000 nM |
| CS(=O)(=O)NC(=O)c1cc(F)c(COc2ccc(C(F)(F)F)cn2)cc1F [Example 56, 2,5-Difluoro-N-(methylsulfonyl)-4-({[5-(trifluoromethyl)pyridin-2-yl]oxy}methyl)benzamide] | 6720 nM |
| CS(=O)(=O)NC(=O)c1cc(Cl)c(COc2cnc(C3CC3)c(C3CC3)c2)cc1F [Example 57, 5-Chloro-4-{[(5,6-dicyclopropylpyridin-3-yl)oxy]methyl}-2-fluoro-N-(methylsulfonyl)benzamide diethylamine salt.] | 153 nM |
| CS(=O)(=O)NC(=O)c1cc(Cl)c(COc2cnc(C3CC3)c(OC(F)F)c2)cc1F [Example 59, 5-Chloro-4-({[6-cyclopropyl-5-(difluoromethoxy)pyridin-3-yl]oxy}methyl)-2-fluoro-N-(methylsulfonyl)benzamide diethylamine salt] | 356 nM |
| CS(=O)(=O)NC(=O)c1ccc(COc2cc(C(F)(F)F)c(Cl)cn2)cc1 [Example 62, 4-({[5-Chloro-4-(trifluoromethyl)pyridin-2-yl]oxy}methyl)-N-(methylsulfonyl)benzamide] | 3410 nM |

The remaining lines, values ahead:

| IC50 | Compound |
| --- | --- |
| 82.2 nM | [2H]C(C)(C)Oc1ncc(OCc2cc(F)c(C(=O)NS(C)(=O)=O)cc2Cl)cc1Cl [Example 34, 5-Chloro-4-{[(5-chloro-6-d1-isopropoxypyridin-3-yl)oxy]methyl}-2-fluoro-N-(methylsulfonyl)benzamide] |
| 28 nM | CC(C)Oc1ncc(OCc2cc(F)c(C(=O)NS(C)(=O)=O)cc2Cl)cc1Cl [Example 35, 5-Chloro-4-((5-chloro-6-isopropoxypyridin-3-yloxy)methyl)-2-fluoro-N-(methylsulfonyl)benzamide] |
| 9.1 nM | CS(=O)(=O)NC(=O)c1cc(Cl)c(COc2cnc(OCC(F)(F)C(F)F)c(Cl)c2)cc1F [Example 37, 5-Chloro-4-({[5-chloro-6-(2,2,3,3-tetrafluoropropoxy)pyridin-3-yl]oxy}methyl)-2-fluoro-N-(methylsulfonyl)benzamide] |
| 21.5 nM | CC(C)(C)c1ncc(OCc2cc(F)c(C(=O)NS(C)(=O)=O)cc2Cl)cc1Cl [Example 38, 4-{[(6-tert-Butyl-5-chloropyridin-3-yl)oxy]methyl}-5-chloro-2-fluoro-N-(methylsulfonyl)benzamide] |
| 39.9 nM | [2H]C([2H])([2H])C([2H])(Oc1ncc(OCc2cc(F)c(C(=O)NS(C)(=O)=O)cc2Cl)cc1Cl)C([2H])([2H])[2H] [Example 39, 5-Chloro-4-{[(5-chloro-6-d7-isopropoxypyridin-3-yl)oxy]methyl}-2-fluoro-N-(methylsulfonyl)benzamide] |
| 51.8 nM | CS(=O)(=O)NC(=O)c1cc(Cl)c(COc2cnc(C3CC3)c(Cl)c2)cc1F [Example 42, 5-Chloro-4-{[(5-chloro-6-cyclopropylpyridin-3-yl)oxy]methyl}-2-fluoro-N-(methylsulfonyl)benzamide] |
| 42.5 nM | CS(=O)(=O)NC(=O)c1cc(Cl)c(COc2cnc(OCC(F)(F)F)c(Cl)c2)cc1F [Example 43, 5-Chloro-4-({[5-chloro-6-(2,2,2-trifluoroethoxy)pyridin-3-yl]oxy}methyl)-2-fluoro-N-(methylsulfonyl)benzamide] |
| > 3000 nM | COc1cc(COc2cnc(OC(C)C)c(Cl)c2)ccc1C(=O)NS(C)(=O)=O [Example 48, 4-{[(5-Chloro-6-isopropoxypyridin-3-yl)oxy]methyl}-2-methoxy-N-(methylsulfonyl)benzamide] |
| 9.7 nM | CC(C)(Oc1ncc(OCc2cc(F)c(C(=O)NS(C)(=O)=O)cc2F)cc1Cl)C(F)(F)F [Example 49, 4-({[5-Chloro-6-(2,2,2-trifluoro-1,1-dimethylethoxy)pyridin-3-yl]oxy}methyl)-2,5-difluoro-N-(methylsulfonyl)benzamide] |
| 6230 nM | COc1ncc(COc2ccc(C(=O)NS(C)(=O)=O)cc2Cl)cc1Cl [Example 51] |
| > 1000 nM | CS(=O)(=O)NC(=O)c1cc(F)c(COc2cc(C(F)(F)F)c(Cl)cn2)cc1F [Example 55, 4-({[5-Chloro-4-(trifluoromethyl)pyridin-2-yl]oxy}methyl)-2,5-difluoro-N-(methylsulfonyl)benzamide] |
| 6850 nM | CC(C)Oc1ncc(OCc2cc(F)c(C(=O)NS(C)(=O)=O)cc2Cl)cn1 [Example 58, 5-Chloro-2-fluoro-4-{[(2-isopropoxypyrimidin-5-yl)oxy]methyl}-N-(methylsulfonyl)benzamide] |
| > 3000 nM | CS(=O)(=O)NC(=O)c1cc(F)c(COc2ncc(Cl)cc2Cl)cc1F [Example 60, 4-{[(3,5-dichloropyridin-2-yl)oxy]methyl}-2,5-difluoro-N-(methylsulfonyl)benzamide] |
| 1840 nM | CS(=O)(=O)NC(=O)c1cc(F)c(COc2cc(C(F)(F)F)nc(C(F)(F)F)c2)cc1F [Example 61, 4-({[2,6-bis(trifluoromethyl)pyridin-4-yl]oxy}methyl)-2,5-difluoro-N-(methylsulfonyl)benzamide] |

Reference: US9102621B2, “Acyl sulfonamide compounds” (Pfizer Limited, priority 2010, dated 2015)
